Test results published in ChEMBL document CHEMBL5465560, “Selectivity Literature for EUbOPEN Chemogenomic Library” (2024).

How the values were obtained:
[1] = biological target: T1, Serine/threonine-protein kinase TBK1 (Homo sapiens) (UniProt Q9UHD2); experiment: Selectivity interaction (Kinase panel (KiNativ target engagement assay in Jurkat cells)) EUB0001635a TBK1; format: cell-based; conditions: Selectivity number of off-targets 0.0, Selectivity number of targets 233.0, Source Knowledge https://www.sciencedirect.com/science/article/pii/S2451945619300674?via%3Dihub, at 1 µM
T1 sequence (whole entry): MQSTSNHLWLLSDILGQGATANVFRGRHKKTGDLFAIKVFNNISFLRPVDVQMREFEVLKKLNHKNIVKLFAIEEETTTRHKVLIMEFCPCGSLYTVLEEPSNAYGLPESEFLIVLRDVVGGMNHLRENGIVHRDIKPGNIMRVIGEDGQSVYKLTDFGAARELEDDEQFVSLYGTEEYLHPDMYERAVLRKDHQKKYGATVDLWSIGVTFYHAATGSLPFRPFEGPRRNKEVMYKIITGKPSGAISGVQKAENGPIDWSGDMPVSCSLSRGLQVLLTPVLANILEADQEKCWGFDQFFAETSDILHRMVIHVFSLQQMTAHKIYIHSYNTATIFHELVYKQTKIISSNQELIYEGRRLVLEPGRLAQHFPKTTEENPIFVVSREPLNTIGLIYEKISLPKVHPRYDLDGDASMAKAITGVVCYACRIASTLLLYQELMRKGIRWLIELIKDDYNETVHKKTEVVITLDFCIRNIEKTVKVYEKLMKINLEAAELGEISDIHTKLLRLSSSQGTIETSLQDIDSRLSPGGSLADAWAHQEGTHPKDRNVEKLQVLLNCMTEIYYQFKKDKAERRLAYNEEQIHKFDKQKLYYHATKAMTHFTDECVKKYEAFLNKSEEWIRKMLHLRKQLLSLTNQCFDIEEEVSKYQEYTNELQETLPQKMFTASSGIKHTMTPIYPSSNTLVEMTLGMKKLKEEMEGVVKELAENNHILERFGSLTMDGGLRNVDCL

[2] = biological target: Tyrosine-protein kinase Blk (Homo sapiens) (UniProt P51451); experiment: Selectivity interaction (KinomeScan (DiscoverX)) EUB0000229b BLK; conditions: at 10 µM
Sequence of Tyrosine-protein kinase Blk (Homo sapiens) (P51451 2-505 limits assumed): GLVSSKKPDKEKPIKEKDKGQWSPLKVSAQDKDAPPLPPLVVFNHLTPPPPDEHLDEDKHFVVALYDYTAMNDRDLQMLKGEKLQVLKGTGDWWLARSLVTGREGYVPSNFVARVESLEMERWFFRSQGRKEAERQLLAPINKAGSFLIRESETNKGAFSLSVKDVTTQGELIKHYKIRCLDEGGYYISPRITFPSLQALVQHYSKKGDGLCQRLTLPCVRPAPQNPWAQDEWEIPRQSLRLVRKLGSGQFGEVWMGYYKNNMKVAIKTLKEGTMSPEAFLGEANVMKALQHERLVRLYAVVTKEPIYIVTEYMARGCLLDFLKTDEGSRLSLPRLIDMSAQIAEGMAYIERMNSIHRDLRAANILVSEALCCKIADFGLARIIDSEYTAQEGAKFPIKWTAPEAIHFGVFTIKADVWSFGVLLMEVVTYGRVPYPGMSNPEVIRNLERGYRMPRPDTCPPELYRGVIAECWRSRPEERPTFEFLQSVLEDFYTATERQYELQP

[3] = biological target: Serine/threonine-protein kinase pim-3 (Homo sapiens) (UniProt Q86V86); experiment: Selectivity interaction (KinomeScan (DiscoverX)) EUB0000666a PIM3; conditions: at 10 µM
[4] = biological target: Ribosomal protein S6 kinase alpha-5 (Homo sapiens) (UniProt O75582); experiment: Selectivity interaction (KinomeScan (DiscoverX)) EUB0001868a RPS6KA5; conditions: at 1 µM
Sequence of Ribosomal protein S6 kinase alpha-5 (Homo sapiens) (O75582 whole entry, looked up): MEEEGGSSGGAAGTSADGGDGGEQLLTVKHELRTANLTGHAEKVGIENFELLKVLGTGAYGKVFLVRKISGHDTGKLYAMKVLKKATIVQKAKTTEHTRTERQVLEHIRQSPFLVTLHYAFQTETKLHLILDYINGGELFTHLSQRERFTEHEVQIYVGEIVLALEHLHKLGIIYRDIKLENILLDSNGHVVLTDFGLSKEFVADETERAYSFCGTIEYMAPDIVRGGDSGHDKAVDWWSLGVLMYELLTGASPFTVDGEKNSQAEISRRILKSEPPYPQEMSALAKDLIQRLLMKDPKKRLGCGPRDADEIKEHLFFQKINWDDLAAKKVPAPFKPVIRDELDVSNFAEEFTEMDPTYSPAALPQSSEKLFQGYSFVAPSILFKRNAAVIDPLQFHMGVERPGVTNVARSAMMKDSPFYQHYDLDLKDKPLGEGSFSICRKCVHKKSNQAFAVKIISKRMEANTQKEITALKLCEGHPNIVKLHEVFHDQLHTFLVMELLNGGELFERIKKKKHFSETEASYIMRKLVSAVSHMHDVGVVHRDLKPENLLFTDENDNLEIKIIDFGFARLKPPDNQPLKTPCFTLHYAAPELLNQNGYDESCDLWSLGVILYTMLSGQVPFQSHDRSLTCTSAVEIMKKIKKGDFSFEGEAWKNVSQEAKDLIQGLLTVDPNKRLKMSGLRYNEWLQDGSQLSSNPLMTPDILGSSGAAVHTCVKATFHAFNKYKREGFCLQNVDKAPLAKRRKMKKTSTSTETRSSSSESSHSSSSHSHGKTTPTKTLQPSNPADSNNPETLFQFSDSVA

[5] = biological target: T2, Non-receptor tyrosine-protein kinase TNK1 (Homo sapiens) (UniProt Q13470); experiment: Selectivity interaction (Kinase panel (Carna Biosciences)) EUB0001542aTs TNK1; conditions: at 1 µM
T2 sequence (whole entry): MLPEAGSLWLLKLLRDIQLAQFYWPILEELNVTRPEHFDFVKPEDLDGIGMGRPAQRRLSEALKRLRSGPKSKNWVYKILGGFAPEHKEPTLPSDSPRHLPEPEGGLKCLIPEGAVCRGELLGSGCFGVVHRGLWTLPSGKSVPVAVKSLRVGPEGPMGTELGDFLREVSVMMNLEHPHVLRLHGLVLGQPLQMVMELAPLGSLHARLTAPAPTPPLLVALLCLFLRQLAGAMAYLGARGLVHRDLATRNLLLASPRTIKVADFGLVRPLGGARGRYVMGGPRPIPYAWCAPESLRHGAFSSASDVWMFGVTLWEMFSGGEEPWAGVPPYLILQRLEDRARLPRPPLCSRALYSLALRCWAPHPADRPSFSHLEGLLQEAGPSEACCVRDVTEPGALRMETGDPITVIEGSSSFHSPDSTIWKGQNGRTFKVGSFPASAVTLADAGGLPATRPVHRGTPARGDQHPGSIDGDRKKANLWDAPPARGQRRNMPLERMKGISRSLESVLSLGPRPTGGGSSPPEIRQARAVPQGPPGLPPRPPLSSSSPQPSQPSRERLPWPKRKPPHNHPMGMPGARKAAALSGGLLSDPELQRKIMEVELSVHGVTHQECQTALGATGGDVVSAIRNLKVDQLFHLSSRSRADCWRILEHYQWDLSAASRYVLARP

[6] = biological target: Calcium/calmodulin-dependent protein kinase type II subunit delta (Homo sapiens) (UniProt Q13557); experiment: Selectivity interaction (ActivX KiNativ screen (kinase selectivity in THP-1 cell lysates)) EUB0000639a CAMK2D; format: subcellular; conditions: lysate, at 0.04 µM
Sequence of Calcium/calmodulin-dependent protein kinase type II subunit delta (Homo sapiens) (Q13557 whole entry): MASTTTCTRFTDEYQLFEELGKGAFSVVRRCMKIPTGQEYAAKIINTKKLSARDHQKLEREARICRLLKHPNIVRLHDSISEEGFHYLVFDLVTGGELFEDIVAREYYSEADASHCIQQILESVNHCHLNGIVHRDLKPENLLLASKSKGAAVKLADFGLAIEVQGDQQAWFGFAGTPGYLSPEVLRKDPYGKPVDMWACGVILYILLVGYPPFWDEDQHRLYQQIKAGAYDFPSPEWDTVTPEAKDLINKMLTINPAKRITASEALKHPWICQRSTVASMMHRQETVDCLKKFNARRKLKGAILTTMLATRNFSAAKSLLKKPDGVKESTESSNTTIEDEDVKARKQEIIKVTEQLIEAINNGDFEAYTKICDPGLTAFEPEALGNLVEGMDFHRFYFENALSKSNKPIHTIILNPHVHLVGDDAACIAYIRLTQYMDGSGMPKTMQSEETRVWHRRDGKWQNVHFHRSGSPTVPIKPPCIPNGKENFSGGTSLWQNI

C=CC(=O)Nc1ccc(C(=O)Nc2[nH]nc3c2CN(C(=O)N[C@H](CN(C)C)c2ccccc2)C3(C)C)cc1
% of engagement [1]: 32.4%

COc1cc(N(C)c2ccnc3ccc(C(F)(F)F)cc23)cc(OC)c1OC
% binding [2]: 100%

O=C(NOC[C@H](O)CO)c1ccc(F)c(F)c1Nc1ccc(I)cc1F
% of control [3]: 100%

Cc1cc(-c2ccnc(Nc3cnn(C)c3)n2)ccc1CNC(=O)N1CC(OC(C)C)C1
% of control [4]: 42%

Cn1cc(Nc2nccc(N3CC4CCC(C3)N4C(=O)[C@@H]3CC3(F)F)n2)cn1
% of inhibition [5]: 94%

CC[C@@H]1[C@H](F)C(=O)N[C@@H]1COc1nccc2cc(C(N)=O)c(OC)cc12 [ZIMLOVISERTIB]
% of inhibition [6]: 16.7%
